# Experimental data from patent USRE49850E1, “N-(pyridin-2-yl)-4-(thiazol-5-yl)pyrimidin-2-amine derivatives as therapeutic compounds” (AUCENTRA THERAPEUTICS PTY LTD, priority 2015, dated 2024).
# Experiments:
# [1] = tested on: MDA-MB-453; assay: Cell viability assay (MTT, solid tumour cell line) MDA-MB-453; format: cell-based, human; conditions: Homo sapiens, MDA-MB-453, 72 h; read-out: Anti-proliferative activity GI50 MDA-MB-453
# Description: (§1) Compounds from Example 1 were subjected to a standard MTT (3-(4,5-dimethylthiazol-2-yl)-2,5-diphenyltetrazolium bromide) and resazurin assays on solid tumour cell lines and leukemia cell lines, respectively, as previously reported (Wang S et al., J Med Chem 47:1662-1675, 2004 and Diab S. et al. CheMedChem 9:962-972, 2014).
# [2] = tested on: MV4-11; assay: Cell viability assay (resazurin, leukemia cell line) MV4-11; format: cell-based, human; conditions: Homo sapiens, MV4-11, 72 h; read-out: Anti-proliferative activity GI50 MV4-11
# Description: as §1
# [3] = biological target: T1, CDK9T1 (Homo sapiens, UniProt P50750); assay: Kinase assay CDK9/T1 (radiometric or ADP Glo); format: biochemical; conditions: for Ki: apparent Ki calculated from Km (ATP) and IC50, read-out: CDK inhibition Ki CDK9T1; for remaining activity at 10 µM: compound at 10 μM, read-out: % remaining enzymatic activity at 10 μM CDK9T1
# T1 construct: purchased Eurofins Pharma Discovery or Reaction Biology Corporation (service)
# T1 sequence (P50750 whole entry): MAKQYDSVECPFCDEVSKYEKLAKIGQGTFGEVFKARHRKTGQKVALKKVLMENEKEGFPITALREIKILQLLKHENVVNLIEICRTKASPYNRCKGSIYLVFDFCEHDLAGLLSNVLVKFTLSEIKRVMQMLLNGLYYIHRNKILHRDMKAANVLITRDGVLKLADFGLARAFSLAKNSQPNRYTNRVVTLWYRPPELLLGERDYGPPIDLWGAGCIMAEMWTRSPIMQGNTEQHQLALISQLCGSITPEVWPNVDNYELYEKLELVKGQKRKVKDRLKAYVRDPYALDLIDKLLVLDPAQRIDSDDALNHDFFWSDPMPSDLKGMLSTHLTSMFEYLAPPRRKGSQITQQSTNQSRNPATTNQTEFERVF
# T1 sequence (O60563 whole entry partner): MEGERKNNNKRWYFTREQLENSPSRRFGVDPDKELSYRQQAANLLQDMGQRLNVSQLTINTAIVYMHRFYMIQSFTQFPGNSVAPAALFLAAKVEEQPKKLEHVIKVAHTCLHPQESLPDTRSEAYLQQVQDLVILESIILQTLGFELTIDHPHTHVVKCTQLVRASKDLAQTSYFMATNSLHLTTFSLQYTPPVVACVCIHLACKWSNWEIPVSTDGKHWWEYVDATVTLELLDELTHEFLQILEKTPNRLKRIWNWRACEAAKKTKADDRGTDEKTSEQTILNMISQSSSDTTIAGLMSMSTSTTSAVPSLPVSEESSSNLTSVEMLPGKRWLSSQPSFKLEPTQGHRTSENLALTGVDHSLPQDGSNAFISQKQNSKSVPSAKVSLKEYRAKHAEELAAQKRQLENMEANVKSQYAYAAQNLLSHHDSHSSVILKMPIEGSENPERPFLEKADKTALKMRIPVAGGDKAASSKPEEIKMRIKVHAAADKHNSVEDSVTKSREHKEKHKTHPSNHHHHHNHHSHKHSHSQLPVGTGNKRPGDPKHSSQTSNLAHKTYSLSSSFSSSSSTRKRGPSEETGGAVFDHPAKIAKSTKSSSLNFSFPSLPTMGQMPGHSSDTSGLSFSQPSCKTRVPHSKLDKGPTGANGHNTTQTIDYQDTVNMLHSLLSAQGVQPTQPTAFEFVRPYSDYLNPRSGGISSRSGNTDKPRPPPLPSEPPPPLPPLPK
# Method: (§2) Eurofins Pharma Discovery or Reaction Biology Corporation Kinase Profiler services were used to measure inhibition of CDKs and other kinases by radiometric assay. Inhibition of CDK4/D1, CDK6/D3 and CDK9/T1 were also determined in-house using ADP Glo Kinase assays (Promega Corporation, Madison, USA). Briefly, the kinase reaction for CDK4/D1 and CDK6/D3 was performed with kinase reaction buffer ([…] Tris base pH 7.5, 20 mM MgCl2, 0.4 mM DTT), 0.1 mg/ml BSA and RB-CTF substrate (retinoblastoma protein1 C-terminal fraction). For CDK9/CyclinT1, the kinase reaction was performed with standard assay buffer and Kinase Dilution Buffer and RBER-IRStide substrate. Serial dilutions of 1:3 were prepared for test compounds for 10 concentrations (from 10 μM to 0.5 nM). The kinase reactions were started by addition of ATP, incubated for 40 min at 37° C. and then stopped by adding 10 μL of ADP Glo reagent. After incubation at room temperature in the dark for 40 min, 20 μL of kinase detection reagent was added per well and incubated for 40 min. Luminescence was measured using an EnVision Multilabel plate reader (PerkinElmer, Buckinghamshire, UK). Positive and negative controls were perfonned in the presence and absence of CDK kinases, respectively. Half-maximal inhibition (IC50) values were calculated using a 4-parameter logistic non-linear regression model with Graphpad prism (Version 6.0). Apparent inhibition constants (Ki) values were calculated from Km (ATP) and IC50 values for the respective kinases.
# [4] = biological target: CDK7H (Homo sapiens, UniProt P50613); assay: Kinase assay CDK7H (radiometric profiling service); format: biochemical; conditions: for Ki: apparent Ki calculated from Km (ATP) and IC50, read-out: CDK inhibition Ki CDK7H; for remaining activity at 10 µM: compound at 10 μM, read-out: % remaining enzymatic activity at 10 μM CDK7H
# Chain of CDK7H (P50613 whole entry): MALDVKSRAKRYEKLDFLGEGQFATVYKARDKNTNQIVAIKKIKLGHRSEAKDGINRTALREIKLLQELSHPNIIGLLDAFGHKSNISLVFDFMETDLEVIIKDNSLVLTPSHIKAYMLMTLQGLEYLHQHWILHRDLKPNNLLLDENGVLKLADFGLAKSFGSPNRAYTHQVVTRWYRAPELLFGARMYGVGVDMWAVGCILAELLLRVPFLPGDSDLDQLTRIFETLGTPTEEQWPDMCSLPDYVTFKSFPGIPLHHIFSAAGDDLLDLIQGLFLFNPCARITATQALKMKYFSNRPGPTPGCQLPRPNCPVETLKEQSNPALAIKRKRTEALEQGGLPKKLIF
# Chain of CDK7H (P51946 whole entry partner): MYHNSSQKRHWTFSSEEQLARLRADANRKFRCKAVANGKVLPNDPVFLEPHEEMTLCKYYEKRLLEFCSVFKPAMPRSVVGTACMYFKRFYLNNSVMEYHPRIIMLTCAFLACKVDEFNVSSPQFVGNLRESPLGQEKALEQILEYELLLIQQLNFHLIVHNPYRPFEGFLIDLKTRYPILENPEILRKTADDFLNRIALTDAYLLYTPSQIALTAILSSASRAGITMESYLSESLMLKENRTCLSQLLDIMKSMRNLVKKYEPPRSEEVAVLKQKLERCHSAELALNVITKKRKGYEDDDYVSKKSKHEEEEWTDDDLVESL
# Chain of CDK7H (P51948 whole entry partner): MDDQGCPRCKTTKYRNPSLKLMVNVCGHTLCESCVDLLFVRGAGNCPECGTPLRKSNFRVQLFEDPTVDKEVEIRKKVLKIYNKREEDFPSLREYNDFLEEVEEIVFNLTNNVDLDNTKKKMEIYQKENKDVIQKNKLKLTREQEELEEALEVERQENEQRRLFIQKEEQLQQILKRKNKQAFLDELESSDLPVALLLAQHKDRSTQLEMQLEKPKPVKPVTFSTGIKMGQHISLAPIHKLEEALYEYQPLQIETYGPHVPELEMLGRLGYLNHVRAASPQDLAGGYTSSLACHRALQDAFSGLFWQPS
# Method: as §2
# [5] = biological target: CDK 2A (Homo sapiens, UniProt P24941); assay: Kinase assay CDK2A (radiometric profiling service); format: biochemical; conditions: for Ki: apparent Ki calculated from Km (ATP) and IC50, read-out: CDK inhibition Ki CDK 2A; for remaining activity at 10 µM: compound at 10 μM, read-out: % remaining enzymatic activity at 10 μM CDK 2A
# Method: as §2
# [6] = biological target: T2, CDK4D1 (Homo sapiens, UniProt P11802); assay: Kinase assay CDK4/D1 (radiometric or ADP Glo); format: biochemical; conditions: apparent Ki calculated from Km (ATP) and IC50; read-out: CDK inhibition Ki CDK4D1
# T2 construct: purchased Eurofins Pharma Discovery or Reaction Biology Corporation (service)
# T2 sequence (P11802 whole entry): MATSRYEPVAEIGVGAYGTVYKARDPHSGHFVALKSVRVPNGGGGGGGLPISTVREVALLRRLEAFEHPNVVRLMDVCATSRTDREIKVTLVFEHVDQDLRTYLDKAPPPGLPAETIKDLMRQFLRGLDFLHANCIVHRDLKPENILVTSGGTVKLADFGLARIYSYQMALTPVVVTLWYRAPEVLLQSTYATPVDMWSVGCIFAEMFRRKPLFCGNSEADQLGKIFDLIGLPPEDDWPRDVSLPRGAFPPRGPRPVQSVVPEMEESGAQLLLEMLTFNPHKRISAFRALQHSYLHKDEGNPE
# T2 sequence (P24385 whole entry partner): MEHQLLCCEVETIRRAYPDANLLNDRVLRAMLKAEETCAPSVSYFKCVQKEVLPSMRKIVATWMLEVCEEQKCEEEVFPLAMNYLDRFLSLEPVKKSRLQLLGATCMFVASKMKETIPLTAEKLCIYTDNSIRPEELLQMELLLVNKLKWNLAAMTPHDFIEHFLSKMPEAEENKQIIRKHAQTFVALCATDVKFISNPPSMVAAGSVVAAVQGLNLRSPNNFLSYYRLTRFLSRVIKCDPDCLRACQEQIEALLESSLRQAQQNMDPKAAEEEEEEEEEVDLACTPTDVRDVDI
# Method: as §2
# [7] = biological target: CDK1B (Homo sapiens, UniProt P06493); assay: Kinase assay CDK1B (radiometric profiling service); format: biochemical; conditions: for Ki: apparent Ki calculated from Km (ATP) and IC50, read-out: CDK inhibition Ki CDK1B; for remaining activity at 10 µM: compound at 10 μM, read-out: % remaining enzymatic activity at 10 μM CDK1B
# Chain of CDK1B (P06493 whole entry): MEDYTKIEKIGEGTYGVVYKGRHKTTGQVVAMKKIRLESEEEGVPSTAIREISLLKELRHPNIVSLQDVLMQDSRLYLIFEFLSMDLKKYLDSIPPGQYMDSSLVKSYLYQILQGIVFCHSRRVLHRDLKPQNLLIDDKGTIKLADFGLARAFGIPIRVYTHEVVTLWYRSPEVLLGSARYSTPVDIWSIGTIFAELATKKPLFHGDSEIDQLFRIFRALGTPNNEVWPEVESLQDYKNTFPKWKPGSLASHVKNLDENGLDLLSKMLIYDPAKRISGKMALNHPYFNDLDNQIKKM
# Chain of CDK1B (P14635 whole entry partner): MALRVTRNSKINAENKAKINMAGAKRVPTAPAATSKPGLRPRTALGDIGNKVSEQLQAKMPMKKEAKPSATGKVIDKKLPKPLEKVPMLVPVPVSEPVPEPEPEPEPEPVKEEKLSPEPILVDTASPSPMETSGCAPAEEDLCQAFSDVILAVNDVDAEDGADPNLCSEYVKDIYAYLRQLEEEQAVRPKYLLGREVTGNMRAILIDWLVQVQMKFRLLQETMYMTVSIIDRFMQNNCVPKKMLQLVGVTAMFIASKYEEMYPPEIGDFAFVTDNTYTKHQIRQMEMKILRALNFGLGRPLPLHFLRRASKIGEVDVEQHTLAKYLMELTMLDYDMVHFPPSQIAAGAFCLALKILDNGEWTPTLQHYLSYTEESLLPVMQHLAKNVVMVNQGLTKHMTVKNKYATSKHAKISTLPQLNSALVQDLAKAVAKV
# Method: as §2
# [8] = biological target: T3, CDK6D3 (Homo sapiens, UniProt Q00534); assay: Kinase assay CDK6/D3 (radiometric or ADP Glo); format: biochemical; conditions: for Ki: apparent Ki calculated from Km (ATP) and IC50, read-out: CDK inhibition Ki CDK6D3; for remaining activity at 10 µM: compound at 10 μM, read-out: % remaining enzymatic activity at 10 μM CDK6D3
# T3 construct: purchased Eurofins Pharma Discovery or Reaction Biology Corporation (service)
# T3 sequence (Q00534 whole entry): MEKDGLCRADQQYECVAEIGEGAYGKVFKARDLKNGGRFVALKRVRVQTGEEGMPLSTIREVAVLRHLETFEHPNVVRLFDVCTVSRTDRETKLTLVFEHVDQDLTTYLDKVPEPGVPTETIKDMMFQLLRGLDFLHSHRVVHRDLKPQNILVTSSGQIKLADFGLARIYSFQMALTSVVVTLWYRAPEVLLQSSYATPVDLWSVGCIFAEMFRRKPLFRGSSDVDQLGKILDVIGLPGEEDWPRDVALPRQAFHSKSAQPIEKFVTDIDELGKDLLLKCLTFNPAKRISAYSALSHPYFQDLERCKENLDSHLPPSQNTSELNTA
# T3 sequence (P30281 whole entry partner): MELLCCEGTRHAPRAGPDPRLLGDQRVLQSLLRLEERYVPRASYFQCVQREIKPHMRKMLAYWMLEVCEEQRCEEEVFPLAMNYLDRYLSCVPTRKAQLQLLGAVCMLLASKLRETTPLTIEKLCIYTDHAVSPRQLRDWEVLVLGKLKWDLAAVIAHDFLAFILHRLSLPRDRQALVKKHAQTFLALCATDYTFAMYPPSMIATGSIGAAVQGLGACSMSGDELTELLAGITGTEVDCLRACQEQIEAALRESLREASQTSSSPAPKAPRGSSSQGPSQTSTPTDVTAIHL
# Method: as §2
SMILES,GI50 [1] [nM],GI50 [2] [nM],Ki [3] [nM],Ki [4] [nM],Ki [5] [nM],Ki [6] [nM],Ki [7] [nM],Ki [8] [nM],remaining activity at 10 µM [3] [%],remaining activity at 10 µM [4] [%],remaining activity at 10 µM [5] [%],remaining activity at 10 µM [7] [%],remaining activity at 10 µM [8] [%]
"CCc1nc(C)c(-c2ccnc(Nc3ccc(N4CCN(C(C)=O)CC4)cn3)n2)s1 [Compound 10, 1-(4-(6-((4-(2-ethyl-4-methylthiazol-5-yl)pyrimidin-2-yl)amino)pyridin-3-yl)piperazin-1-yl)ethan-1-one]",> 10000,5370 ± 1680,> 5000,> 5000,> 5000,290,> 5000,–,–,–,–,–,–
"CCc1nc(C)c(-c2nc(Nc3ccc(N4CCN(C(C)=O)CC4)cn3)ncc2Cl)s1 [Compound 11, 1-(4-(6-((5-chloro-4-(2-ethyl-4-methylthiazol-5-yl)pyrimidin-2-yl)amino)pyridin-3-yl)piperazin-1-yl)ethan-1-one]",> 10000,> 10000,> 5000,> 5000,> 5000,250,> 5000,–,–,–,–,–,–
"CCc1nc(C)c(-c2ccnc(Nc3ccc(N4CCOCC4)cn3)n2)s1 [Compound 12, 4-(2-Ethyl-4-methylthiazol-5-yl)-N-(5-morpholinopyridin-2-yl)pyrimidin-2-amine]",> 10000,5290 ± 811,> 5000,> 5000,2340,180,> 5000,–,–,–,–,–,–
"CNc1nc(C)c(-c2nc(Nc3ccc(N4CCOCC4)cn3)ncc2C#N)s1 [Compound 37, 4-(4-methyl-2-(methylamino)thiazol-5-yl)-2-((5-morpholinopyridin-2-yl)amino)pyrimidine-5-carbonitrile]",–,465 ± 129,> 5000,> 5000,201,4,> 5000,64,–,–,–,–,–
"CNc1nc(C)c(-c2ccnc(Nc3ccc(N4CCN(Cc5ccccc5)CC4)cn3)n2)s1 [Compound 39, 5-(2-((5-(4-benzylpiperazin-1-yl)pyridin-2-yl)amino)pyrimidin-4-yl)-N,4-dimethylthiazol-2-amine]",–,45900 ± 2520,> 5000,> 5000,> 5000,169,> 5000,2710,–,–,–,–,–
"CCN1CCN(c2ccc(Nc3nccc(-c4sc(NC5CCCC5)nc4C)n3)nc2)CC1 [Compound 66, N-cyclopentyl-5-(2-((5-(4-ethylpiperazin-1-yl)pyridin-2-yl)amino)pyrimidin-4-yl)-4-methylthiazol-2-amine]",287 ± 70,9 ± 1,–,780,–,–,3020,–,–,–,–,–,–
"Cc1nc(Nc2ccccc2)sc1-c1ccnc(Nc2ccc(N3CCNCC3)cn2)n1 [Compound 89, 4-Methyl-N-phenyl-5-(2-((5-(piperazin-1-yl)pyridin-2-yl)amino)pyrimidin-4-yl)thiazol-2-amine]",279 ± 44,56 ± 11,436,–,> 5000,5,2040,66,–,–,–,–,–
"Cc1[nH]c(=O)sc1-c1ccnc(Nc2ccc(N3CCNCC3)cn2)n1 [Compound 97, 4-methyl-5-(2-((5-(piperazin-1-yl)pyridin-2-yl)amino)pyrimidin-4-yl)thiazol-2(3H)-one]",> 10000,1510 ± 802,–,–,–,–,–,–,3,24,54,58,12

# The remaining lines, values ahead:
GI50 [1] [nM],GI50 [2] [nM],Ki [3] [nM],Ki [4] [nM],Ki [5] [nM],Ki [6] [nM],Ki [7] [nM],Ki [8] [nM],remaining activity at 10 µM [3] [%],remaining activity at 10 µM [4] [%],remaining activity at 10 µM [5] [%],remaining activity at 10 µM [7] [%],remaining activity at 10 µM [8] [%],SMILES
–,259 ± 241,2850,> 5000,889,6,> 5000,114,–,–,–,–,–,"CNc1nc(C)c(-c2ccnc(Nc3ccc(N4CCNCC4)cn3)n2)s1 [Compound 26, N,4-dimethyl-5-(2-((5-(piperazin-1-yl)pyridin-2-yl)amino)pyrimidin-4-yl)thiazol-2-amine]"
–,14 ± 6,–,–,–,1,–,40,11,39,34,56,–,"CNc1nc(C)c(-c2nc(Nc3ccc(N4CCNCC4)cn3)ncc2C#N)s1 [Compound 27, 4-(4-methyl-2-(methylamino)thiazol-5-yl)-2-((5-(piperazin-1-yl)pyridin-2-yl)amino)pyrimidine-5-carbonitrile]"
–,56 ± 4,–,–,–,4,–,32,9,43,36,66,–,"CNc1nc(C)c(-c2nc(Nc3ccc(N4CCN(C)CC4)cn3)ncc2C#N)s1 [Compound 30, 4-(4-methyl-2-(methylamino)thiazol-5-yl)-2-((5-(4-methylpiperazin-1-yl)pyridin-2-yl)amino)pyrimidine-5-carbonitrile]"
–,643 ± 18,> 5000,> 5000,459,20,> 5000,610,–,–,–,–,–,"CNc1nc(C)c(-c2ccnc(Nc3ccc(N4CCOCC4)cn3)n2)s1 [Compound 36, N,4-dimethyl-5-(2-((5-morpholinopyridin-2-yl)amino)pyrimidin-4-yl)thiazol-2-amine]"
5360 ± 501,4680 ± 298,> 5000,> 5000,69,44,> 5000,–,–,–,–,–,–,"Cc1nc(N(C)C)sc1-c1nc(Nc2ccc(N3CCOCC3)cn2)ncc1F [Compound 50, 5-(5-fluoro-2-((5-morpholinopyridin-2-yl)amino)pyrimidin-4-yl)-N,N,4-trimethylthiazol-2-amine]"
1440 ± 304,–,> 5000,> 5000,–,–,–,–,–,–,–,–,–,Cc1nc(NC2CCCC2)sc1-c1nc(Nc2ccc(N3CCOCC3)cn2)ncc1F [Compound 72]
402 ± 6,285 ± 41,1800,–,174,2,1390,10,–,–,–,–,–,"Cc1nc(N(C)C2CCCC2)sc1-c1ccnc(Nc2ccc(N3CCNCC3)cn2)n1 [Compound 85, N-cyclopentyl-N,4-dimethyl-5-(2-((5-(piperazin-1-yl)pyridin-2-yl)amino)pyrimidin-4-yl)thiazol-2-amine]"
373 ± 117,714 ± 179,> 5000,> 5000,> 5000,–,> 15000,–,–,–,–,–,–,"Cc1nc(N(C2CCCC2)C2CCCC2)sc1-c1ccnc(Nc2ccc(N3CCNCC3)cn2)n1 [Compound 88, N,N-dicyclopentyl-4-methyl-5-(2-((5-(piperazin-1-yl)pyridin-2-yl)amino)pyrimidin-4-yl)thiazol-2-amine]"
> 10000,2240 ± 43,–,–,–,–,–,–,17,68,40,55,25,"CC(=O)N1CCN(c2ccc(Nc3nccc(-c4sc(=O)[nH]c4C)n3)nc2)CC1 [Compound 95, 5-(2-((5-(4-acetylpiperazin-1-yl)pyridin-2-yl)amino)pyrimidin-4-yl)-4-methylthiazol-2(3H)-one]"
2860 ± 988,792 ± 74,–,–,–,–,–,–,15,22,61,63,11,"Cc1c(-c2ccnc(Nc3ccc(N4CCNCC4)cn3)n2)sc(=O)n1C1CCCC1 [Compound 96, 3-cyclopentyl-4-methyl-5-(2-((5-(piperazin-1-yl)pyridin-2-yl)amino)pyrimidin-4-yl)thiazol-2(3H)-one]"
